Measurements from patent US20090318501A1, “Piperidine derivatives as renin inhibitors” (priority 2006, published 2009).

Columns and labels:
[1] = molecular target: T1, trypsin-activated recombinant human renin (Homo sapiens, UniProt P00797); assay: In vitro renin inhibition, fluorescence of internally quenched peptide substrate; type: biochemical; conditions: pH 7.0, rt
T1 sequence (P00797 67-406): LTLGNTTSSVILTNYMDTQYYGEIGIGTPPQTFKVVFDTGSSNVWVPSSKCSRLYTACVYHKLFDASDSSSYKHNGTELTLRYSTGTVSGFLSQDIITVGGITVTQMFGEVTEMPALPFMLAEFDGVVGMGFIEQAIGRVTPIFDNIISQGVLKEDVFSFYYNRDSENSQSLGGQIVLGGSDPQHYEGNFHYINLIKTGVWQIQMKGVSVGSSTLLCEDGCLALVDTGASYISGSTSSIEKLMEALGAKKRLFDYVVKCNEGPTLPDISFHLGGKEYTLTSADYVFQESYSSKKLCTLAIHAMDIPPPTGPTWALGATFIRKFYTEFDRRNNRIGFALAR
Protocol: The sequence of this peptide corresponds to the sequence of human angiotensinogen. The following test protocol was used. All reactions were carried out in a flat bottom white opaque microtiter plate. A 4 μL aliquot of 400 μM renin substrate (DABCYL-γ-[…]) in 192 μL assay buffer (50 mM BES, 150 mM NaCl, 0.25 mg/mL bovine serum albumin, pH7.0) was added to 4 μL of test compound in DMSO at various concentrations ranging from 10 μM to 1 nM final concentrations. Next, 100 μL of trypsin-activated recombinant human renin (final enzyme concentration of 0.2-2 nM) in assay buffer was added, and the solution was mixed by pipetting. The increase in fluorescence at 495 nm (excitation at 340 nm) is measured for 60-360 minutes at rt using a Perkin-Elmer Fusion microplate reader. The slope of a linear portion of the plot of fluorescence-increase as a function of time was then determined, and the rate was used for calculating percent inhibition in relation to uninhibited control. […] (Wang G. T. et al. Anal. Biochem. 1993, 210, 351; Nakamura, N. et al. J. Biochem. (Tokyo) 1991, 109, 741; Murakami, K. et al. Anal Biochem. 1981, 110, 232).

[2] = molecular target: T2, plasma renin activity (PRA) (Homo sapiens, UniProt P00797); assay: In vitro plasma renin activity (PRA) in human plasma, angiotensin I radioimmunoassay; type: biochemical; conditions: pooled human plasma, 37° C., 90 min, IC50 of plasma renin activity
T2 construct: 87.3% of pooled mixed-gender human plasma stabilized with EDTA; from tissue; host or cells: pooled mixed-gender human plasma (EDTA)
T2 sequence (P00797 67-406): T1 sequence (P00797 67-406)
Protocol: For plasma batches with low PRA (less than 1 ng/ml/hr) ˜2 pM of recombinant human renin was added to achieve PRA of 3-4 ng/ml/hr. The cleavage of endogenous angiotensinogen in plasma was carried out at 37° C. for 90 min and the product angiotensin I was measured by competitive radioimmunoassay using DiaSorin PRA kit.

[3] = system: double transgenic rats engineered to express human renin and human angiotensinogen; assay: In vivo efficacy in double transgenic rats, telemetry blood pressure; design: species or system rat; conditions: oral, 10 mg/kg, FIG. 3
Protocol: Double Transgenic Rat: The efficacy of the renin inhibitor 6a was evaluated in vivo in double transgenic rats engineered to express human renin and human angiotensinogen (Bohlender J, Fukamizu A, Lippoldt A, Nomura T, Dietz R, Menard J, Murakami K, Luft F C, Ganten D. High human renin hypertension in transgenic rats. Hypertension 1997, 29, 428-434).
(§1) Experiments were conducted in 6-week-old double transgenic rats (dTGRs). The model has been described in detail earlier. […] The human angiotensinogen construct made up the entire human angiotensinogen gene (5 exons and 4 introns), with 1.3 kB of 5′-flanking and 2.4 kB of 3′-flanking sequences. The rats were purchased from RCC Ltd (Füillinsdorf, Switzerland). Radio telemetry transmitters were surgically implanted at 4 weeks of age. The telemetry system provided 24-h recordings of systolic, mean, diastolic arterial pressure (SAP, MAP, DAP, respectively) and heart rate (HR). Beginning on day 42, animals were transferred to telemetry cages. A 24 h telemetry reading was obtained. Rats were then dosed orally on the following 4 consecutive days (days 43-46). The rats were monitored continuously and allowed free access to standard 0.3%-sodium rat chow and drinking water.

[4] = Plasma concentration in transgenic rats after oral administration; type: in vivo, rat; conditions: 10 mg/kg, FIG. 2
Protocol: FIG. 2 is a plot showing mean plasma concentrations of compound 6a in transgenic rats over time following oral administration of 10 mg/kg of compound 6a.
as §1

| Structure (SMILES) | IC50 [1] [nM] | IC50 [2] [nM] | oral bioavailability and metabolic stability [4] | plasma concentration of compound following oral administration [4] | effect on mean arterial blood pressure [3] |
| --- | --- | --- | --- | --- | --- |
| CCOC(=O)NCCO[C@@H](c1cc(F)cc(Cl)c1)[C@@H]1CCCN(C(=O)N[C@H](CNC)C[C@H]2CCCOC2)C1 [Compound 9, ethyl 2-((R)-(3-chloro-5-fluorophenyl)((R)-1-((S)-1-(methylamino)-3-((R)-tetrahydro-2H-pyran-3-yl)propan-2-ylcarbamoyl)piperidin-3-yl)methoxy)-ethylcarbamate] | < 10 | < 50 |  |  |  |
| CNC[C@H](C[C@H]1CCCOC1)NC(=O)N1CCC[C@@H]([C@@H](OCCNC(=O)OC)c2ccc(F)c(Cl)c2)C1 [Compound 8, methyl 2-((R)-(3-chloro-4-fluorophenyl)((R)-1-((S)-1-(methylamino)-3-((R)-tetrahydro-2H-pyran-3-yl)propan-2-ylcarbamoyl)piperidin-3-yl)methoxy)-ethylcarbamate] | < 10 | < 10 |  |  |  |
| CNC[C@H](C[C@@H]1CCCOC1)NC(=O)N1CCC[C@@H]([C@@H](OCCNC(=O)OC)c2cccc(F)c2)C1 [Compound 2b, methyl 2-((R)-(3-fluorophenyl)((R)-1-((S)-1-(methylamino)-3-((S)-tetrahydro-2H-pyran-3-yl)propan-2-ylcarbamoyl)piperidin-3-yl)methoxy)ethylcarbamate] | < 10 | < 20 |  |  |  |
| CNC[C@H](C[C@H]1CCCOC1)NC(=O)N1CCC[C@@H]([C@@H](OCCNC(=O)OC)c2cc(Cl)ccc2C)C1 [Compound 10, methyl 2-((R)-(5-chloro-2-methylphenyl)((R)-1-((S)-1-(methylamino)-3-((R)-tetrahydro-2H-pyran-3-yl)propan-2-ylcarbamoyl)piperidin-3-yl)methoxy)-ethylcarbamate] | < 10 | < 1 |  |  |  |
| CNC[C@H](CC1CCCOC1)NC(=O)N1CCC[C@@H]([C@@H](OCCNC(=O)OC)c2cccc(C)c2)C1 (stereo partly drawn) [Compound 1, methyl 2-((R)-((R)-1-((S)-1-(methylamino)-3-(tetrahydro-2H-pyran-3-yl)propan-2-ylcarbamoyl)piperidin-3-yl)(m-tolyl)methoxy)ethylcarbamate] | < 10 | < 10 |  |  |  |
| CNC[C@H](C[C@H]1CCCOC1)NC(=O)N1CCC[C@@H]([C@@H](OCCNC(=O)OC)c2ccccc2)C1 [Compound 7, methyl 2-((R)-((R)-1-((S)-1-(methylamino)-3-((R)-tetrahydro-2H-pyran-3-yl)propan-2-ylcarbamoyl)piperidin-3-yl)(phenyl)methoxy)ethylcarbamate] | < 20 | < 50 |  |  |  |
| CNC[C@H](C[C@H]1CCCOC1)NC(=O)N1CCC[C@@H]([C@@H](OCCNC(=O)OC)c2cccc(F)c2)C1 [Compound 2a, methyl 2-((R)-(3-fluorophenyl)((R)-1-((S)-1-(methylamino)-3-((R)-tetrahydro-2H-pyran-3-yl)propan-2-ylcarbamoyl)piperidin-3-yl)methoxy)ethylcarbamate] | < 10 | < 10 |  |  |  |

Second part, led by results:

| IC50 [1] [nM] | IC50 [2] [nM] | oral bioavailability and metabolic stability [4] | plasma concentration of compound following oral administration [4] | Structure (SMILES) | effect on mean arterial blood pressure [3] |
| --- | --- | --- | --- | --- | --- |
| < 10 | < 10 |  |  | CNC[C@H](C[C@@H]1CCCOC1)NC(=O)N1CCC[C@@H]([C@@H](OCCNC(=O)OC)c2cc(F)cc(Cl)c2)C1 [Compound 3b, Methyl 2-((R)-(3-chloro-5-fluorophenyl)((R)-1-((S)-1-(methylamino)-3-((S)-tetrahydro-2H-pyran-3-yl)propan-2-ylcarbamoyl)piperidin-3-yl)methoxy)ethylcarbamate] |  |
| < 20 | < 50 |  |  | CNC[C@H](C[C@@H]1CCCOC1)NC(=O)N1CCC[C@@H]([C@@H](OCCNC(=O)OC)c2cc(F)ccc2C)C1 [Compound 5b, methyl 2-((R)-(5-fluoro-2-methylphenyl)((R)-1-((S)-1-(methylamino)-3-((S)-tetrahydro-2H-pyran-3-yl)propan-2-ylcarbamoyl)piperidin-3-yl)methoxy)-ethylcarbamate] |  |
| < 1 | < 1 |  |  | CNC[C@H](C[C@H]1CCCOC1)NC(=O)N1CCC[C@@H]([C@@H](OCCNC(=O)OC)c2cc(F)cc(Cl)c2)C1 [Compound 3a, methyl 2-((R)-(3-chloro-5-fluorophenyl)((R)-1-((S)-1-(methylamino)-3-((R)-tetrahydro-2H-pyran-3-yl)propan-2-ylcarbamoyl)piperidin-3-yl)methoxy)ethylcarbamate] |  |
| < 10 | < 50 |  |  | CNC[C@H](C[C@@H]1CCCOC1)NC(=O)N1CCC[C@@H]([C@@H](OCCNC(=O)OC)c2cc(F)cc(F)c2)C1 [Compound 4b, methyl 2-((R)-(3,5-difluorophenyl)((R)-1-((S)-1-(methylamino)-3-((S)-tetrahydro-2H-pyran-3-yl)propan-2-ylcarbamoyl)piperidin-3-yl)methoxy)ethylcarbamate] |  |
| < 10 | < 10 |  |  | CNC[C@H](C[C@H]1CCCOC1)NC(=O)N1CCC[C@@H]([C@@H](OCCNC(=O)OC)c2cc(F)cc(F)c2)C1 [Compound 4a, methyl 2-((R)-(3,5-difluorophenyl)((R)-1-((S)-1-(methylamino)-3-((R)-tetrahydro-2H-pyran-3-yl)propan-2-ylcarbamoyl)piperidin-3-yl)methoxy)ethylcarbamate] |  |
| < 1 | < 1 | excellent | remains relatively high over 24 h period | CNC[C@H](C[C@H]1CCCOC1)NC(=O)N1CCC[C@@H]([C@@H](OCCNC(=O)OC)c2cccc(Cl)c2)C1 [Compound 6a, methyl 2-((R)-(3-chlorophenyl)((R)-1-((S)-1-(methylamino)-3-((R)-tetrahydro-2H-pyran-3-yl)propan-2-ylcarbamoyl)piperidin-3-yl)methoxy)ethylcarbamate] | significant effect in lowering blood pressures |
| < 10 | < 10 |  |  | CNC[C@H](C[C@H]1CCCOC1)NC(=O)N1CCC[C@@H]([C@@H](OCCNC(=O)OC)c2cc(F)ccc2C)C1 [Compound 5a, methyl 2-((R)-(5-fluoro-2-methylphenyl)((R)-1-((S)-1-(methylamino)-3-((R)-tetrahydro-2H-pyran-3-yl)propan-2-ylcarbamoyl)piperidin-3-yl)methoxy)-ethylcarbamate] |  |
| < 10 | < 10 |  |  | CNC[C@H](C[C@@H]1CCCOC1)NC(=O)N1CCC[C@@H]([C@@H](OCCNC(=O)OC)c2cccc(Cl)c2)C1 [Compound 6b, methyl 2-((R)-(3-chlorophenyl)((R)-1-((S)-1-(methylamino)-3-((S)-tetrahydro-2H-pyran-3-yl)propan-2-ylcarbamoyl)piperidin-3-yl)methoxy)ethylcarbamate] |  |
